According to patent US7906510B2, “Amide derivative and pharmaceutical composition containing the same” (Dainippon Sumito Pharma Co., Ltd., priority 2008, dated 2011):
Read-outs that look alike come from different tables or passages of the source.

Biological target: T1, 5-HT4 receptor (Cavia porcellus, UniProt O70528)
T1 construct: the mixture was suspended to give receptor membrane preparations; from tissue; host or cells: guinea pig (Slc-Hartley) brain striatum membranes
Assay: Serotonin 4 (5-HT4) receptor binding assay
Parameters: species or system guinea pig
Procedure: 5-HT4 receptor binding assay and preparations of receptor membrane preparations were carried out according to a method of Grossman et al. [see British J. Pharmacol., (1993) 109, 618].
Slc-Hartley guinea pigs (body weight 300 to 400 g) were decapitated to remove brain rapidly, and striatum was isolated. To the obtained tissues were added fifteenfold of Hepes buffer (50 mM, pH7.4, 4° C.), and the mixture was homogenized by Teflon® homogenizer and centrifuged at 48,000×g (4° C.) for 15 minutes. To the resulting precipitate was added Hepes buffer (1 ml) to 30 mg by wet weight of tissues, and the mixture was suspended to give receptor membrane preparations.
0.1 nM [^3H]-GR113808 {chemical name: [1-[2-(methylsulfonylamino)ethyl]-4-piperidinyl]methyl 1-methylindole-3-carboxylate}, receptor membrane preparations, and Hepes buffer (50 mM, pH7.4, 4° C., 1 ml) containing test compounds or 30 μM serotonin were placed in an assay tube, and incubated at 37° C. for 30 minutes. On quenching the reaction, the mixture was rapidly filtered on whatman GF/B filter, which was presoaked in 0.1% polyethyleneimine for 1 hour, by using Brandel cell Harvester, and washed with ice-cooled 50 mM Tris-HCl (pH7.7, 4 ml) three times. To the filter after filtration was added ACS II scintillator, and then a radioactivity was determined by a liquid scintillation counter.
50% inhibition concentrations (IC50) were determined from inhibition rates of test compounds to specific bindings which were obtained by subtracting nonspecific bindings from total binding amounts of [^3H]-GR113808.

[1] = inhibition of specific binding of 0.1 nM [3H]-GR113808, guinea pig striatum membrane preparations, 37° C., 30 minutes, read-out: IC50

T1 sequence (O70528 whole entry): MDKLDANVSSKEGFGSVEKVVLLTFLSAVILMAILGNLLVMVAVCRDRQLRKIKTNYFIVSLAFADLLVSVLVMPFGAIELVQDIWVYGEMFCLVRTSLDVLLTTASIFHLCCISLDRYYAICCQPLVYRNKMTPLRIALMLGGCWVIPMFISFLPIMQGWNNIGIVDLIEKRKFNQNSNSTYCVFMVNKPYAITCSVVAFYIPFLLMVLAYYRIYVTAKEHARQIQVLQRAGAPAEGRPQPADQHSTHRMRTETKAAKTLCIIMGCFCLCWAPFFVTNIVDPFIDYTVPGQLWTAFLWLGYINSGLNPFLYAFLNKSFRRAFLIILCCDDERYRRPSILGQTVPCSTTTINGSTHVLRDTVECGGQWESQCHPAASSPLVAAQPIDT

SMILES | IC50 [1] [nM] | IC50 [nM]
CN(C)C(=O)N1CCC(CN2CCO[C@@H](CNC(=O)c3cc(Cl)c(N)c4c3OCC4)C2)CC1 [Example 136] | 4.26 | –
COc1ccccc1OC(=O)N1CCC(CN2CCO[C@@H](CNC(=O)c3cc(Cl)c(N)cc3OC)C2)CC1 [Example 107] | – | 3.43
COc1cc(N)c(Cl)cc1C(=O)NC[C@H]1CN(CC2CCN(C(=O)CC3CCNCC3)CC2)CCO1 [Example 194] | 10.1 | –
CCOc1cc(N)c(Cl)cc1C(=O)NC[C@H]1CN(CC2CCN(C(=O)n3ccnc3)CC2)CCO1 [Example 206, (S)-4-amino-5-chloro-2-ethoxy-N-[{4-[(1-imidazolecarbonyl-4-piperidinyl)-methyl]-2-morpholinyl}methyl]benzamide] | 10.6 | –
C=CCCC=CC(=O)N1CCC(CN2CCOC(CNC(=O)c3cc(Cl)c(N)cc3OCC)C2)CC1 (racemic) [Example 164] | 7.5 | –
C=CC=CC(=O)N1CCC(CN2CCOC(CNC(=O)c3cc(Cl)c(N)cc3OCC)C2)CC1 (racemic) [Example 163] | 6.58 | –
COc1cc(N)c(Cl)cc1C(=O)NC[C@H]1CN(CC2CCN(C(=O)c3ccco3)CC2)CCO1 [Example 131] | 6.96 | –
CCOc1cc(N)c(Cl)cc1C(=O)NC[C@H]1CN(CC2CCN(C(=O)NC)CC2)CCO1 [Example 47] | 8.04 | –
COc1cc(N)c(Cl)cc1C(=O)NC[C@H]1CN(CC2CCN(C(=O)c3ccc(-c4ccccc4)cc3)CC2)CCO1 [Example 175] | 6.13 | –
COc1cc(N)c(Cl)cc1C(=O)NC[C@H]1CN(CC2CCN(C(=O)c3cccc(OC(C)=O)c3)CC2)CCO1 [Example 168] | 5.17 | –
CCOc1cc(N)c(Cl)cc1C(=O)NCC1CN(CC2CCN(C(=O)c3ccccc3)CC2)CCO1 (stereo not drawn) [Example 112] | 3.01 | –
COc1cc(N)c(Cl)cc1C(=O)NC[C@H]1CN(CC2CCN(C(=O)OCC(C)C)CC2)CCO1 [Example 102] | 6.79 | –
COc1cc(N)c(Cl)cc1C(=O)NC[C@H]1CN(CC2CCN(C(=O)c3ccccc3Oc3ccccc3)CC2)CCO1 [Example 170] | 5.65 | –
CCOc1cc(N)c(Cl)cc1C(=O)NC[C@H]1CN(CC2CCN(C(=O)c3ccccc3OC(C)=O)CC2)CCO1 [Example 167] | 6.36 | –

Further molecules by falling IC50 [1], results first:

IC50 [1] [nM] | SMILES | IC50 [nM]
2.84 | CS(=O)(=O)N1CCC(CN2CCOC(CNC(=O)c3cc(Cl)c(N)c4c3OCC4)C2)CC1 (stereo not drawn) [Example 140] | –
2.83 | COc1cc(N)c(Cl)cc1C(=O)NC[C@H]1CN(CC2CCN(C(=O)NCc3ccccc3)CC2)CCO1 [Example 59] | –
2.51 | COc1cc(N)c(Cl)cc1C(=O)NC[C@H]1CN(CC2CCN(C(=O)NCc3ccc(Cl)cc3Cl)CC2)CCO1 [Example 62] | –
2.23 | COc1cc(N)c(Cl)cc1C(=O)NC[C@H]1CN(CC2CCN(C(=O)c3cccc(F)c3)CC2)CCO1 [Example 113] | –
2.22 | CCOc1cc(N)c(Cl)cc1C(=O)NCC1CN(CC2CCN(C(=O)c3cccc(F)c3)CC2)CCO1 (stereo not drawn) [Example 114] | –
2.11 | COc1cc(N)c(Cl)cc1C(=O)NC[C@H]1CN(CC2CCN(C(=O)c3ccc(C(C)(C)C)cc3)CC2)CCO1 [Example 123] | –
1.82 | COc1cc(N)c(Cl)cc1C(=O)NC[C@H]1CN(CC2CCN(C(=O)Nc3cc(C)cc(C)c3)CC2)CCO1 [Example 57] | –
1.7 | COc1cc(N)c(Cl)cc1C(=O)NC[C@H]1CN(CC2CCN(C(=O)c3ccccc3C)CC2)CCO1 [Example 118] | –
1.5 | Nc1c(Cl)cc(C(=O)NCC2CN(CC3CCN(C(=O)N4CCCC4)CC3)CCO2)c2c1CCO2 (stereo not drawn) [Example 134] | –
1.46 | COc1ccccc1NC(=O)N1CCC(CN2CCO[C@@H](CNC(=O)c3cc(Cl)c(N)cc3OC)C2)CC1 [Example 53] | –
1.24 | COc1cc(N)c(Cl)cc1C(=O)NC[C@H]1CN(CC2CCN(C(=O)c3ccc(C)s3)CC2)CCO1 [Example 178] | –
0.72 | COc1cc(N)c(Cl)cc1C(=O)NC[C@H]1CN(CC2CCN(C(=O)c3ccc(N)c(Cl)c3)CC2)CCO1 [Example 176] | –
0.04 | COc1cc(N)c(Cl)cc1C(=O)NC[C@H]1CN(CC2CCN(C(=O)c3cccc(Br)c3)CC2)CCO1 [Example 117] | –
